We go through three molecules from patent US20230416298A1, “PRODRUGS OF NEUROACTIVE STEROIDS” (Brii Biosciences, Inc., priority 2020, published 2023).

A short description of series [1]: Plasma stability. Particulars: 37° C.; for Stability in Human Plasma Formation of parent compound: 2 μM, Yes/No; for half-life at 2 μM: pooled plasma, pH 7.4, human plasma, time points 0, 10, 30, 60 and 120 min. It counts as in vitro ADME. The method, then:
The pooled frozen plasma was thawed in a water bath at 37° C. prior to experiment. Plasma was centrifuged at 4000 rpm for 5 min and the clots were removed if any. The pH will be adjusted to 7.4±0.1 if required.
Preparation of test compounds and positive control (propantheline bromide): 1 mM intermediate solution was prepared by diluting 10 μL of the stock solution with 90 μL MeOH; 1 mM intermediate of positive control Propantheline was prepared by diluting 10 μL of the stock solution with 90 μL ultrapure water. 100 μM dosing solution was prepared by diluting 20 μL of the intermediate solution (1 mM) with 180 μL MeOH. 98 μL of blank plasma was spiked with 2 μL of dosing solution (100 μM) to achieve 2 μM of the final concentration in duplicate and samples were incubated at 37° C. in a water bath. At each time point (0,10, 30, 60 and 120 min), 400 μL of stop solution (0.1% FA in MeOH containing 200 ng/mL tolbutamide and 200 ng/mL Labetalol) was added to precipitate protein and mixed thoroughly. Centrifuged sample plates at 4,000 rpm for 10 min. An aliquot of supernatant (100 μL) was transferred from each well to another plates.
Data analysis: The % remaining of test compound after incubation in plasma was calculated using following equation:
% Remaining=[…]×(PAR at appointed incubation time/PAR at T0 time)
where PAR is the peak area ratio of analyte versus internal standard (IS) (LC/MS/MS mobile phase condition: 0.1% Formic Acid in Water/0.1% Formic Acid in Acetonitrile. The appointed incubation time points are TO (0 min), Tn (n=0, 10, 30, 60, 120 min).

Series [2] in a line: Liver S9 stability. Type of series: in vitro ADME. Particulars: human liver S9, 37° C.; for half-life at 1 μM: time points up to 60 min; for Stability in Human Liver S9 Formation of parent compound: Yes/No. On the procedure:
Intermediate solution: Dilute 5 μL of compounds or controls (7-ethoxycoumarin) from stock solution (10 mM) with 495 μL MeOH (Conc.: 100 μM, 1% DMSO, 99% MeOH). Stop solution: Cold ACN (including 100 ng/mL Tolbutamide and Labetalol as internal standard). Add 2 μL test compound or control working solution/well to all plates (T0, T5, T10, T20, T30, T60, NCF60) except matrix blank. Add 600 μL/well stop solution (cold in 4° C., including 100 ng/mL Tolbutamide/100 ng/mL Labetalol) to terminate the TO plate, then put it on ice. Dispense 840 μL/well S9 solution to 96-well plate as reservoir according to plate map. Then add 100 μL/well to every plate by Apricot. Incubate S9 solution and compound at 37° C. for about 10 min except NCF60 and TO. After adding S9 solution and 98 μ LPB buffer to NCF60, incubate at 37° C. without pre-warming, start timer 1. After 60 min, add 600 μL/well stop solution to terminate the reaction. After pre-warming, dispense 760 μL/well cofactor solution to 96-well plate as reservoir according to plate map. Then add 98 μL/well to every plate by Apricot to start reaction. Incubate at 37° C., start timer 2, Add 600 μL/well stop solution (cold in 4° C., including 100 ng/mL Tolbutamide and Labetalol) to terminate the reaction. Samples are centrifuged at 4000 rpm for 20 min. While centrifuging, load 8×new 96-well plate with 300 μL HPLC water, then transfer 100 μL supernatant, mix with water for LC/MS/MS, transferred to Bioanalytical Services for LC-MS/MS analysis. Use equation of first order kinetics to calculate t1/2 and CL: Equation of first order kinetics: […]

In general, half-life refers to how long it takes for the measured level to halve. Low values mean rapid decline, high ones slow decline.

Regarding `CC(=O)OCCCC(C)C(=O)O[C@@H]1CC[C@@]2(C)[C@@H](CC[C@@H]3[C@@H]2CC[C@]2(C)[C@@H](C(C)=O)CC[C@@H]32)C1` (stereo partly drawn) [Example 17, [(3R,5S,8R,9S,10S,13S,14S,17S)-17-acetyl-10,13-dimethyl-2,3,4,5,6,7,8,9,11,12,14,15,16,17-tetradecahydro-1H-cyclopenta[a]phenanthren-3-yl]5-acetoxy-2-methyl-pentanoate], in series [1], the “Stability in Human Plasma Formation of parent compound” value (from here on “Stability in Human Plasma Formation”) is on record as “No” and the half-life at 2 μM lay within 50 to 200 min. For the same molecule, in series [2], the half-life at 1 μM was less than 50 min and the “Stability in Human Liver S9 Formation of parent compound” value (from here on “Stability in Human Liver S9 Formation”) is on record as “No”.
In the case of `CC(=O)OCCCCC(=O)O[C@@H]1CC[C@@]2(C)[C@@H](CC[C@@H]3[C@@H]2CC[C@]2(C)[C@@H](C(C)=O)CC[C@@H]32)C1` [Example 16, [(3R,5S,8R,9S,10S,13S,14S,17S)-17-acetyl-10,13-dimethyl-2,3,4,5,6,7,8,9,11,12,14,15,16,17-tetradecahydro-1H-cyclopenta[a]phenanthren-3-yl] 5-acetoxypentanoate], in series [1], the “Stability in Human Plasma Formation” value is “No” and the half-life at 2 μM lay in the range of 50 to 200 min. In series [2], the half-life at 1 μM was less than 50 min and the “Stability in Human Liver S9 Formation” value is listed as “No”.
Consider `CC(=O)[C@H]1CC[C@H]2[C@@H]3CC[C@H]4C[C@H](OC(=O)CCCOC(=O)C(C)C)CC[C@]4(C)[C@H]3CC[C@]12C` [Example 15, [(3R,5S,8R,9S,10S,13S,14S,17S)-17-acetyl-10,13-dimethyl-2,3,4,5,6,7,8,9,11,12,14,15,16,17-tetradecahydro-1H-cyclopenta[a]phenanthren-3-yl]4-(2-methylpropanoyloxy)butanoate], for which, in series [1], the “Stability in Human Plasma Formation” value was “No” and the half-life at 2 μM lay in the range of 50 to 200 min. Moreover, in series [2], the half-life at 1 μM was less than 50 min and the “Stability in Human Liver S9 Formation” value is on record as “No”.
